From patent US12391647B2, “Benzamide compound and preparation method, use, and pharmaceutical composition thereof” (INSTITUTE OF MATERIA MEDICA, CHINESE ACADEMY OF MEDICAL …, priority 2018, dated 2025)

Experiments:
[1] = tested on: human prostate cancer cell DU145; experiment: MTT assay, survival rate of tumor cells (antiproliferative activity); format: cell-based; settings: DU-145, 72 h, read-out: Antiproliferative activity against human prostate cancer cell DU145, IC50
Method: DU145 cells (human prostate cancer cells) in logarithmic growth phase were digested with 0.25% trypsin-EDTA to prepare single cell suspension, which was inoculated into 96-well plate overnight according to 1500 cells/well/100 μL, and fresh medium containing different concentrations of compounds to be tested and corresponding solvent control was added, and 100 μL (DMSO final concentration <0.1%) was added to each well, and the 96-well plate was further cultured at 37° C. for 72 h. 20 μL of freshly prepared PBS solution containing 5 mg/mL MTT was added to each well, and the 96-well plate was further cultured for 4 h. After the supernatant was discarded, 180 μL of DMSO was added to each well to dissolve the MTT formazan precipitate. After the 96-well plate was shaked and mixed by a micro oscillator, the optical density (OD) at the detection wavelength of 570 nm was measured. With DMSO-treated tumor cells as the control group, the inhibition rate on the growth of tumor cells of the compound to be tested was calculated from the following formula, and the IC50 was calculated according to the median-effect equation. Inhibition rate (%)=(average OD value of control group-average OD value of dosing group)/average OD value of control group×100%

STAT3 transcription = experiment: STAT3 specific luciferase double reporter gene experiment in DU145 cells; format: cell-based, human; settings: for STAT3 transcription inhibition activity: DU145, STAT3 specific luciferase double reporter; for IC50: Homo sapiens, DU-145, DU145 with high STAT3 expression, 24 h
Method: The luciferase plasmids STAT3-TA-Luc and pGMLR-TK were transiently co-transfected into DU145 cells by Lipofectamine 3000. After staying overnight, different concentrations of compounds to be tested were added and cultured for 24 hours. The supernatant was discarded, and the residue was washed twice with PBS, and then 20 μL of lysis solution was added to shake and lyse for 5 min. The supernatant was transferred to a 96-well Costar whiteplate, and 70 μL of Dual-Glo luciferase substrate solution was added, and the relative fluorescence intensity of firefly luciferase was detected, and then 70 μL of Stop-Glo substrate solution was added, and the relative fluorescence intensity of sea kidney luciferase was detected, the normalized value was obtained, and the inhibition rate and IC50 value were calculated.

IC50 (STAT3 transcription) [nM]	Structure (SMILES)	IC50 [1] [nM]	STAT3 transcription inhibition activity (STAT3 transcription)
	Cc1ccc(C(=O)NCc2cccnc2)cc1NS(=O)(=O)c1ccc2c(c1)CCC2 [Example 25, 3-((2,3-dihydro-1H-indene)-5-sulfonamido)-4-methyl-N-(pyridinylmethyl)benzamide]	900 ± 40	
	Cc1ccc(S(=O)(=O)Nc2ccc(C)c(C(=O)NCc3cccnc3)c2)cc1 [Example 11, 2-methyl-5-((4-methylphenyl)sulfonamido)-N-(pyridin-3-ylmethyl)benzamide]	2000 ± 30	
	Cc1ccc(S(=O)(=O)Nc2cc(C)cc(C(=O)NCc3cccnc3)c2)cc1 [Example 7, 3-methyl-5-((4-methylphenyl)sulfonamido)-N-(pyridin-3-ylmethyl)benzamide]	340 ± 10	
15000 ± 1400	Cc1ccc(C(=O)NCc2cccnc2)cc1NS(=O)(=O)c1ccc(F)cc1 [Example 20, 3-((4-fluorophenyl)sulfonamido)-4-methyl-N-(pyridin-3-ylmethyl)benzamide]	3470 ± 1220	obvious STAT3 transcription inhibition activity
	Cc1ccc(S(=O)(=O)Nc2cc(C(=O)NCc3cccnc3)ccc2Cl)cc1 [Example 4, 4-chloro-3-((4-methylphenyl)sulfonamido)-N-(pyridin-3-ylmethyl) benzamide]	800 ± 120	
8000	Cc1ccc(S(=O)(=O)Nc2cc(C(=O)NCc3ccc(C(F)(F)F)nc3)ccc2C)cc1 [Example 35, 4-methyl-3-((4-methylphenyl)sulfonamido)-N-((6-(trifluoromethyl)pyridin-3-yl)methyl)benzamide]	200 ± 70	obvious STAT3 transcription inhibition activity
	Cc1ccc(C(=O)NCc2cccnc2)cc1NS(=O)(=O)c1ccc2c(c1)CCO2 [Example 27, 3-((2,3-dihydrobenzofuran)-5-sulfonamido)-4-methyl-N-(pyridin-3-ylmethyl)benzamide]	1200 ± 10	
	Cc1ccc(S(=O)(=O)Nc2cc(C(=O)NCc3cccnc3)ccc2F)cc1 [Example 3, 4-fluoro-3-((4-methylphenyl)sulfonamido)-N-(pyridin-3-ylmethyl) benzamide]	790 ± 130	
	COc1cccc(S(=O)(=O)Nc2cc(C(=O)NCc3cccnc3)ccc2C)c1 [Example 14, 3-((3-methoxyphenyl)sulfonamido)-4-methyl-N-(pyridin-3-ylmethyl)benzamide]	2500 ± 20	
6200 ± 300	Cc1ccc(S(=O)(=O)Nc2cc(F)cc(C(=O)NCc3cccnc3)c2)cc1 [Example 9, 3-fluoro-5-((4-methylphenyl)sulfonamido)-N-(pyridin-3-ylmethyl)benzamide]	900 ± 20	obvious STAT3 transcription inhibition activity
9700 ± 1300	CCc1ccc(C(=O)NCc2cccnc2)cc1NS(=O)(=O)c1ccc(C)cc1 [Example 6, 4-ethyl-3-((4-methylphenyl)sulfonamido)-N-(pyridin-3-ylmethyl)benzamide]	860 ± 80	obvious STAT3 transcription inhibition activity
	Cc1ccc(S(=O)(=O)Nc2cc(Cl)cc(C(=O)NCc3cccnc3)c2)cc1 [Example 10, 3-chloro-5-((4-methylphenyl)sulfonamido)-N-(pyridin-3-ylmethyl)benzamide]	340 ± 10	
	Cc1ccc(S(=O)(=O)Nc2cccc(C(=O)NCc3cccnc3)c2)cc1 [Example 2, 3-((4-methylphenyl)sulfonamido)-N-(pyridin-3-ylmethyl)benzamide]	700 ± 150	
8200 ± 20	Cc1ccc(S(=O)(=O)Nc2cc(C(=O)NCc3cccnc3)ccc2C)c(C)c1 [Example 17, 3-((2,4-dimethylphenyl)sulfonamido)-4-methyl-N-(pyridinylmethyl)benzamide]	500 ± 40	
17500 ± 300	Cc1ccc(S(=O)(=O)Nc2cc(C(=O)NCc3cccnc3)ccc2C)s1 [Example 30, 4-methyl-3-((5-methylthiophene)-2-sulfonamido)-N-(pyridin-3-ylmethyl)benzamide]	1200 ± 30	obvious STAT3 transcription inhibition activity
10000 ± 2100	COc1ccc(S(=O)(=O)Nc2cc(C(=O)NCc3cccnc3)ccc2C)cc1 [Example 13, 3-((4-methoxyphenyl)sulfonamido)-4-methyl-N-(pyridin-3-ylmethyl)benzamide]	180 ± 80	obvious STAT3 transcription inhibition activity
	Cc1ccc(C(=O)NCc2cccnc2)cc1NS(=O)(=O)c1ccc(C(C)C)cc1 [Example 22, 3-((4-isopropylphenyl)sulfonamido)-4-methyl-N-(pyridin-3-ylmethyl)benzamide]	1000 ± 160	
	Cc1ccc(C(=O)NCc2cccnc2)cc1NS(=O)(=O)c1ccc(Cl)cc1 [Example 21, 3-((4-chlorophenyl)sulfonamido)-4-methyl-N-(pyridin-3-ylmethyl)benzamide]	930 ± 50	
	Cc1ccc(C(=O)NCc2cccnc2)cc1NS(=O)(=O)c1ccc2c(c1)OCO2 [Example 26, 3-(benzo[d][1,3]dioxole-5-sulfonamido)-4-methyl-N-(pyridin-3-ylmethyl)benzamide]	610 ± 140	
	Cc1ccc(C(=O)NCc2cccnc2)cc1NS(=O)(=O)c1ccc2ccccc2c1 [Example 29, 4-methyl-3-(naphthalene-2-sulfonamido)-N-(pyridin-3-ylmethyl)benzamide]	1000 ± 70	
	CCOc1ccc(S(=O)(=O)Nc2cc(C(=O)NCc3cccnc3)ccc2C)cc1 [Example 15, 3-((4-ethoxyphenyl)sulfonamido)-4-methyl-N-(pyridin-3-ylmethyl)benzamide]	860 ± 60	
	COc1ccc(S(=O)(=O)Nc2cc(C(=O)NCc3cccnc3)ccc2C)cn1 [Example 32, 3-((6-methoxypyridine)-3-sulfonamido)-4-methyl-N-(pyridin-3-ylmethyl)benzamide]	400 ± 20	
	Cc1ccc(C(=O)NCc2cccnc2)cc1NS(=O)(=O)c1ccc2c(c1)OCCO2 [Example 28, 3-((2,3-dihydrobenzo[b][1,4]dioxine)-6-sulfonamido)-4-methyl-N-(pyridin-3-ylmethyl)benzamide]	420 ± 10	
	Cc1ccc(S(=O)(=O)Nc2cc(C(=O)NCc3cccnc3)ccc2C)cc1C [Example 16, 3-((3,4-dimethylphenyl)sulfonamido)-4-methyl-N-(pyridin-3-ylmethyl)benzamide]	970 ± 30	
